{"source": "patent US20020132266A1", "about": "“Method for modifying and identifying functional sites in proteins” (priority 1998, published 2002)", "target": "T1, human α-Thrombin (Homo sapiens, UniProt P00734)", "T1 construct": "the light chain and the heavy chain were separated by reverse phase chromatography; gift from Prof; Bode, MPI Martinsried", "assay": "CALI experiment: serine-protease activity of thrombin measured with Chromozym TH after laser irradiation", "assay_type": "biochemical", "conditions": "0.38 μM thrombin, 0.76 μM aptamer (1:2); argon ion laser 496 nm, 800 mW, 30 seconds per well; percentage of thrombin activity in a non-irradiated control; Chromozym TH substrate", "protocol": "Complexes were formed by mixing 7.6 μM thrombin with the fluorescein-labeled aptamer (1:2 molar ratio) in 50 mM Tris buffer, pH 8.3, 100 mM NaCl, and an incubation time of 30 min on ice in the dark.\nControl samples were prepared as described above, either omitting the aptamer, using a non-labeled aptamer or an equal concentration of FITC. Subsequently, the solutions were diluted 20-fold with the same buffer. The final concentrations were 0.38 μM thrombin and 0.76 μM aptamer. The samples were pipetted in 100 μl aliquots into wells of a flat bottom 96-well microtiter plate (Nunc A/S, Roskilde, DK), typically 1.2 ml or 12 wells total per sample. The plate was blocked with 1% BSA in PBS for 1 hour and then washed extensively prior to use.\nThe serine-protease activity of thrombin was measured using Chromozym TH (Roche Diagnostics GmbH, Mannheim, Germany) as substrate. […] The absorbance increase at 405 nm, due to the cleavage of Chromozym TH into a residual peptide and free […] by thrombin, was followed with the time. The absorbance difference per minute, calculated in the linear range, was used to calculate the thrombin activity in U/ml. […]", "note": "{Fluorescein} = fluorescein label", "data": [{"substance": "Flu-THR15: fluorescein-labeled, thrombin-specific aptamer, 15-mer oligonucleotide GGTTGGTGTGGTTGG with the fluorescein moiety linked to its 5′ end (DNA, 5' {Fluorescein}, backbone not given here)", "values": [{"measurement": "thrombin inactivation upon irradiation (CALI effect)", "result": 55, "unit": "%"}]}]}
